Test: Chemiluminescent antioxidant capacity in vitro (luminol/H2O2/p-iodophenol, peroxidase)
Format: biochemical
Settings: for Time (min.) necessary for reaching 50% of the control light emission: water control; for light emission: concentration not given; for antioxidant activity in vitro compared with Trolox: same concentration, extinguishing time of the light emission
Method: The antioxidant capacity “in vitro” of FPA and FPB compounds, extracted from Ajuga reptans, and “in vivo” of the serum of rats treated with these substances, was evaluated by means of a chemiluminescent method and compared with that of an analogous hydrosoluble product of vitamin E.
The chemiluminescent reaction of luminol was used, which is oxidized by hydrogen peroxide (H2O2), generating unstable radicals which degenerate to their basic state emitting light. This reaction is catalyzed by peroxidase enzyme. A signal potentiator is also present in the system: p-iodophenol which increases the light emission, producing in turn radicals which degenerate emitting photons.
The presence of substances with an antioxidant activity interrupts the chain of radicalic reactions, temporarily preventing light emission. The time and extinguishing degree of the emission of photons are in relation to the antioxidant capacity and concentration of the substances being tested.
ECL reagent (luminol/H2O2/p-iodophenol) of Amersham International (Amersham, UK).
[…] (type VI-A, 1100 U/mg) of Sigma (St. Louis, Mo., U.S.A.).
Samples relating to FPA and FPB molecules extracted from Ajuga reptans, were prepared in aqueous solution at different concentrations (5.0, 2.0, 1.0 and 0.5 μM) and compared with solutions, at equal concentrations, of Trolox, an analogous hydrosoluble product of tocopherol. The serum of rats treated with raw extract of Ajuga reptans by intravenous administration at a dosage of 200 mg/kg were diluted 1:20 with water and compared with the serum of a non-treated rat.
Distilled water was used as control.
The dosage was effected in black polystyrene cylinders (Dynatech Laboratories, Chantilly, Va., U.S.A.). The chemiluminescent mixture was prepared by adding 100 μl of a dilution 1:10,000 v/v (0.11 U/ml) of a stock solution of peroxidase (1 mg/ml in a Tris-HCl 0.1 M buffer, pH 8.6) to 5 ml of ECL reagent. The various dilutions of the samples were distributed in quadruple into the cylinders (50 μl/cylinder) and 100 μl of chemiluminescent mixture were added to each. The light emission was measured immediately using a Luminograph LB980 (EG&G Berthold, Bad Wildbad, Germany) and the chemiluminescent reaction kinetics was monitored for about 60 minutes. The light emission was measured in photons/sec/pixel and the data obtained are indicated in Table 1 and the graph of FIG. 1 enclosed, compared with the control (water) and references (Trolox or serum of a non-treated rat).

C[C@@H]1O[C@@H](O[C@@H]2[C@@H](O)[C@H](OCCc3ccc(O)c(O)c3)O[C@H](CO)[C@H]2OC(=O)/C=C/c2ccc(O)c(O)c2)[C@H](O[C@@H]2O[C@H](CO)[C@H](O)[C@H](O)[C@H]2O)[C@H](O)[C@H]1O [FPA, teupolioside]
Time (min.) necessary for reaching 50% of the control light emission (Concentration 0.5 μM): 13 min
Time (min.) necessary for reaching 50% of the control light emission (Concentration 1 μM): 35 min
Time (min.) necessary for reaching 50% of the control light emission (Concentration 2 μM): >60 min
Time (min.) necessary for reaching 50% of the control light emission (Concentration 5 μM): >60 min
light emission (Time 0 (min)): 31.8 photons/sec/pixel
light emission (Time 2 (min)): 1.3 photons/sec/pixel
light emission (Time 5 (min)): 1.4 photons/sec/pixel
light emission (Time 7 (min)): 1 photons/sec/pixel
light emission (Time 9 (min)): 0.9 photons/sec/pixel
light emission (Time 11 (min)): 0.8 photons/sec/pixel
light emission (Time 14 (min)): 0.8 photons/sec/pixel
light emission (Time 17 (min)): 0.7 photons/sec/pixel
light emission (Time 19 (min)): 0.6 photons/sec/pixel
light emission (Time 21 (min)): 0.6 photons/sec/pixel
light emission (Time 23 (min)): 0.6 photons/sec/pixel
light emission (Time 26 (min)): 0.5 photons/sec/pixel
light emission (Time 28 (min)): 0.6 photons/sec/pixel
light emission (Time 30 (min)): 0.5 photons/sec/pixel
light emission (Time 32 (min)): 0.6 photons/sec/pixel
light emission (Time 34 (min)): 1.1 photons/sec/pixel
light emission (Time 37 (min)): 0.8 photons/sec/pixel
light emission (Time 41 (min)): 0.7 photons/sec/pixel
light emission (Time 44 (min)): 0.9 photons/sec/pixel
light emission (Time 46 (min)): 0.8 photons/sec/pixel
light emission (Time 49 (min)): 0.8 photons/sec/pixel
light emission (Time 51 (min)): 0.8 photons/sec/pixel
light emission (Time 53 (min)): 0.8 photons/sec/pixel
light emission (Time 56 (min)): 1.1 photons/sec/pixel
light emission (Time 58 (min)): 0.8 photons/sec/pixel
light emission (Time 61 (min)): 1.1 photons/sec/pixel
activity relative to that of Trolox (dosage of 1 μM): ~12 times
antioxidant activity of FPA compared with FPB (in vitro): slightly higher activity with respect to the FPB compound
antioxidant activity in vitro compared with Trolox: extremely high antioxidant activity in vitro, significantly higher than that of Trolox

Cc1c(C)c2c(c(C)c1O)CCC(C)(C(=O)O)O2 (racemic) [Trolox, (+/−)-6-hydroxy-2,5,7,8-tetramethylchroman-2-carbonsaeure, reference compound]
Time (min.) necessary for reaching 50% of the control light emission (Concentration 0.5 μM): 1 min
Time (min.) necessary for reaching 50% of the control light emission (Concentration 1 μM): 3 min
Time (min.) necessary for reaching 50% of the control light emission (Concentration 2 μM): 6 min
Time (min.) necessary for reaching 50% of the control light emission (Concentration 5 μM): 15 min
light emission (Time 0 (min)): 31.8 photons/sec/pixel
light emission (Time 2 (min)): 2.9 photons/sec/pixel
light emission (Time 5 (min)): 7.8 photons/sec/pixel
light emission (Time 7 (min)): 35.5 photons/sec/pixel
light emission (Time 9 (min)): 46.9 photons/sec/pixel
light emission (Time 11 (min)): 49.3 photons/sec/pixel
light emission (Time 14 (min)): 50.4 photons/sec/pixel
light emission (Time 17 (min)): 49.7 photons/sec/pixel
light emission (Time 19 (min)): 49.2 photons/sec/pixel
light emission (Time 21 (min)): 48.3 photons/sec/pixel
light emission (Time 23 (min)): 47.3 photons/sec/pixel
light emission (Time 26 (min)): 46.2 photons/sec/pixel
light emission (Time 28 (min)): 45.1 photons/sec/pixel
light emission (Time 30 (min)): 43.7 photons/sec/pixel
light emission (Time 32 (min)): 42.1 photons/sec/pixel
light emission (Time 34 (min)): 40.8 photons/sec/pixel
light emission (Time 37 (min)): 39.3 photons/sec/pixel
light emission (Time 41 (min)): 35.3 photons/sec/pixel
light emission (Time 44 (min)): 35 photons/sec/pixel
light emission (Time 46 (min)): 32.8 photons/sec/pixel
light emission (Time 49 (min)): 31.1 photons/sec/pixel
light emission (Time 51 (min)): 29.6 photons/sec/pixel
light emission (Time 53 (min)): 28.6 photons/sec/pixel
light emission (Time 56 (min)): 26.2 photons/sec/pixel
light emission (Time 58 (min)): 26.8 photons/sec/pixel
light emission (Time 61 (min)): 23.9 photons/sec/pixel

COc1cc(C=CC(=O)OC2C(CO)OC(OCCc3ccc(O)c(O)c3)C(O)C2OC2OC(C)C(O)C(O)C2OC2OC(CO)C(O)C(O)C2O)ccc1O (stereo not shown) [FPB]
Time (min.) necessary for reaching 50% of the control light emission (Concentration 0.5 μM): 6 min
Time (min.) necessary for reaching 50% of the control light emission (Concentration 1 μM): 29 min
Time (min.) necessary for reaching 50% of the control light emission (Concentration 2 μM): >60 min
Time (min.) necessary for reaching 50% of the control light emission (Concentration 5 μM): >60 min
light emission (Time 0 (min)): 31.8 photons/sec/pixel
light emission (Time 2 (min)): 0.3 photons/sec/pixel
light emission (Time 5 (min)): 0.2 photons/sec/pixel
light emission (Time 7 (min)): 0 photons/sec/pixel
light emission (Time 9 (min)): 0 photons/sec/pixel
light emission (Time 11 (min)): 0 photons/sec/pixel
light emission (Time 14 (min)): 0 photons/sec/pixel
light emission (Time 17 (min)): 0 photons/sec/pixel
light emission (Time 19 (min)): 0.1 photons/sec/pixel
light emission (Time 21 (min)): 0.4 photons/sec/pixel
light emission (Time 23 (min)): 1.1 photons/sec/pixel
light emission (Time 26 (min)): 1.8 photons/sec/pixel
light emission (Time 28 (min)): 2.6 photons/sec/pixel
light emission (Time 30 (min)): 3.5 photons/sec/pixel
light emission (Time 32 (min)): 5.1 photons/sec/pixel
light emission (Time 34 (min)): 7 photons/sec/pixel
light emission (Time 37 (min)): 6.6 photons/sec/pixel
light emission (Time 41 (min)): 7.6 photons/sec/pixel
light emission (Time 44 (min)): 8.6 photons/sec/pixel
light emission (Time 46 (min)): 8.9 photons/sec/pixel
light emission (Time 49 (min)): 9.6 photons/sec/pixel
light emission (Time 51 (min)): 10.3 photons/sec/pixel
light emission (Time 53 (min)): 10.9 photons/sec/pixel
light emission (Time 56 (min)): 11.4 photons/sec/pixel
light emission (Time 58 (min)): 12.1 photons/sec/pixel
light emission (Time 61 (min)): 12.7 photons/sec/pixel
antioxidant activity in vitro compared with Trolox: extremely high antioxidant activity in vitro, significantly higher than that of Trolox

Source: US20010024809A1, “Compounds with an antioxidant activity, compositions useful as food integrators containing them and process for their preparation” (priority 2000, published 2001)
